The values below come from patent US20260184663A1, “INDENE COMPOUNDS, PHARMACEUTICAL COMPOSITIONS THEREOF, AND THEIR THERAPEUTIC APPLICATIONS” (NucMito Pharmaceuticals co. Ltd., priority 2022, published 2026).

Common to all, as to assay type: cell-based
Test [1] concerns HepG2 (liver cancer). The test can be described thus: Antiproliferative activity (CCK-8 cell viability), HepG2. To be noted: Homo sapiens, 72 h, read-out: Antiproliferative activity in cancerous cells, HepG2 (inhibition of cell growth); for inhibition at 3.3 µM: Compound concentration: 3.3 μM; for inhibition at 10 µM: Compound concentration: 10 μM. The procedure, abridged:
(§1)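 Cells grown in DMEM (HepG2, SW480), MEM (HeLa) or F-12K (A549), each with 10% FBS, then exposed to compound at 3.3, 10 or 30 μM for 72 h at 37 °C. CCK-8 absorbance at 450 nm; viability expressed as percent of DMSO-treated cells, graded as growth inhibition bands.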

Test [2] deals with HeLa (cervical cancer). The test can be described thus: Antiproliferative activity (CCK-8 cell viability), HeLa. As to conditions: Homo sapiens, 72 h, read-out: Antiproliferative activity in cancerous cells, HELA (inhibition of cell growth); for inhibition at 3.3 µM: Compound concentration: 3.3 μM; for inhibition at 10 µM: Compound concentration: 10 μM. The essentials: as §1
Test [3] relates to MDA-MB-231 (breast cancer). The test can be described thus: Antiproliferative activity (CCK-8 cell viability), MDA-MB-231. To be noted: Homo sapiens, 72 h, read-out: Antiproliferative activity in cancerous cells, MDA-MB-231 (inhibition of cell growth); for inhibition at 3.3 µM: Compound concentration: 3.3 μM; for inhibition at 10 µM: Compound concentration: 10 μM. The essentials: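 MDA-MB-231 breast cancer cells, grown in DMEM with 10% FBS, were plated in 96-well plates at 2,000-5,000 cells/well. Once attached, they were exposed to compound and incubated at 37° C. for 72 h. Viability was then measured with CCK-8 (10 μL per well, 4 h at 37° C.) by absorbance at 450 nm, relative to DMSO vehicle wells.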

The test system of test [4] is A431 (epidermoid carcinoma). The test can be described thus: Antiproliferative activity (CCK-8 cell viability), A431. As to conditions: Homo sapiens, 72 h, read-out: Antiproliferative activity in cancerous cells, A431 (inhibition of cell growth); for inhibition at 3.3 µM: A-431, Compound concentration: 3.3 μM; for inhibition at 10 µM: A-431, Compound concentration: 10 μM. The essentials:
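A431 epidermoid carcinoma cells grown in DMEM with 10% FBS were plated at 2,000-5,000 cells/well in 96-well plates. After attachment they were exposed to compound at 3.3 μM, 10 μM, or 30 μM for 72 h at 37° C. Viability was then assessed by CCK-8 against DMSO vehicle-treated wells.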

Test [5] has as its system A549 (lung adenocarcinoma). The test can be described thus: Antiproliferative activity (CCK-8 cell viability), A549. To be noted: Homo sapiens, 72 h; for inhibition at 3.3 µM: Compound concentration: 3.3 μM; for inhibition at 3.3 µM / inhibition at 10 µM: read-out: Antiproliferative activity in cancerous cells, A549 (inhibition of cell growth); for inhibition at 10 µM: Compound concentration: 10 μM. The procedure, abridged:
as §1

In test [6] the test system is SW480 (colon cancer). Description: Antiproliferative activity (CCK-8 cell viability), SW480. As to conditions: Homo sapiens, 72 h, read-out: Antiproliferative activity in cancerous cells, SW480 (inhibition of cell growth); for inhibition at 3.3 µM: Compound concentration: 3.3 μM; for inhibition at 10 µM: Compound concentration: 10 μM. The procedure, abridged: as §1
The test system of test [7] is B16F10 (malignant melanoma). The test can be described thus: Antiproliferative activity (CCK-8 cell viability), B16F10. As to conditions: Mus musculus, 72 h, read-out: Antiproliferative activity in cancerous cells, B16F10 (inhibition of cell growth); for inhibition at 3.3 µM: B16-F10, Compound concentration: 3.3 μM; for inhibition at 10 µM: B16-F10, Compound concentration: 10 μM. The procedure, abridged:
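B16F10 melanoma cells grown in DMEM with 10% FBS were plated in 96-well plates at 2,000-5,000 cells/well. After attachment they were exposed to compound in medium for 72 h at 37° C. CCK-8 solution (10 μL) was then added, and after 4 h at 37° C absorbance was read at 450 nm.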

The structures appear in SMILES notation. Where only a bound is given, the exact number is not on record here.

For the compound `CC1=C(CC(=O)O)c2cc(F)ccc2/C1=C\c1ccc(Oc2ccc(F)cc2)cc1Cl` [C50, (Z)-2-(1-(2-Chloro-4-(4-fluorophenoxy)benzylidene)-5-fluoro-2-methyl-1H-inden-3-yl)acetic acid], the inhibition at 3.3 µM is under 30% in test [1]; 30 to 50% in test [2]; under 30% in test [3]; at least 50% in test [4]; under 30% in test [5]; 30 to 50% in test [6]. Also, in test [7], the inhibition at 3.3 µM is under 30%. The inhibition at 10 µM in test [1], in test [2], in test [3], in test [4], in test [5] and in test [6] was at least 50% throughout. For the same compound, the inhibition at 10 µM in test [7] was at least 50%.

With `COc1cc(Oc2ccc(F)cc2)ccc1/C=C1/C(C)=C(CC(=O)O)c2cc(F)ccc21` [C51, (Z)-2-(5-Fluoro-1-(4-(4-fluorophenoxy)-2-methoxybenzylidene)-2-methyl-1H-inden-3-yl)acetic acid], the inhibition at 3.3 µM in test [1] is under 30%; in test [2], 30 to 50%; in test [3] it was 30 to 50%; in test [4], at least 50%; in test [5] it was 30 to 50%; in test [6], 30 to 50%. For the same compound, in test [7], the inhibition at 3.3 µM is at least 50%. In addition, the inhibition at 10 µM is at least 50% in test [1]; at least 50% in test [2]; at least 50% in test [3]; at least 50% in test [4]; 30 to 50% in test [5]; at least 50% in test [6]. The inhibition at 10 µM in test [7] was at least 50%.

As to `CC1=C(CC(=O)O)c2cc(F)ccc2/C1=C\c1ccc(Oc2ccc(Cl)cc2F)cc1` [C52, (Z)-2-(1-(4-(4-Chloro-2-fluorophenoxy)benzylidene)-5-fluoro-2-methyl-1H-inden-3-yl)acetic acid], the inhibition at 3.3 µM was under 30% in test [1]; 30 to 50% in test [2]; 30 to 50% in test [3]; at least 50% in test [4]; 30 to 50% in test [5]; under 30% in test [6]. Besides, the inhibition at 3.3 µM in test [7] is at least 50%. In addition, the inhibition at 10 µM in test [1], in test [2], in test [3], in test [4], in test [5] and in test [6] was at least 50% each time. The inhibition at 10 µM in test [7] is at least 50%.

With `CC1=C(CC(=O)O)c2cc(F)ccc2/C1=C\c1ccc(Oc2ccc(F)c(Br)c2)cc1` [C53, (Z)-2-(1-(4-(3-Bromo-4-fluorophenoxy)benzylidene)-5-fluoro-2-methyl-1H-inden-3-yl)acetic acid], the inhibition at 3.3 µM was under 30% in test [1]; under 30% in test [2]; at least 50% in test [3]; at least 50% in test [4]; under 30% in test [5]; under 30% in test [6]. In test [7], the inhibition at 3.3 µM is under 30%. In addition, the inhibition at 10 µM in test [1] was at least 50%; in test [2], at least 50%; in test [3] it was at least 50%; in test [4] it was at least 50%; in test [5], 30 to 50%; in test [6], at least 50%. Further, the inhibition at 10 µM in test [7] is at least 50%.

Take `CC1=C(CC(=O)O)c2cc(F)ccc2/C1=C\c1ccc(Oc2ccc(F)c(Cl)c2)cc1` [C54, (Z)-2-(1-(4-(3-Chloro-4-fluorophenoxy)benzylidene)-5-fluoro-2-methyl-1H-inden-3-yl)acetic acid]: the inhibition at 3.3 µM was under 30% in test [1]; under 30% in test [2]; under 30% in test [3]; at least 50% in test [4]; under 30% in test [5]; under 30% in test [6]. Further, the inhibition at 3.3 µM in test [7] is at least 50%. Besides, the inhibition at 10 µM in test [1] is 30 to 50%; in test [2], at least 50%; in test [3] it was at least 50%; in test [4], at least 50%; in test [5], under 30%; in test [6], at least 50%. Also, the inhibition at 10 µM in test [7] is at least 50%. Moreover, the inhibition at 30 µM in test [5] (Compound concentration: 30 μM, read-out: Antiproliferative activity in cancerous cells, A549) is under 30%.

For `CC1=C(CC(=O)O)c2cc(F)ccc2/C1=C\c1ccc(Oc2ccc(Cl)cc2C)cc1` [C55, (Z)-2-(1-(4-(4-Chloro-2-methylphenoxy)benzylidene)-5-fluoro-2-methyl-1H-inden-3-yl)acetic acid], the inhibition at 3.3 µM was under 30% in test [1]; at least 50% in test [2]; under 30% in test [3]; 30 to 50% in test [4]; under 30% in test [5]; under 30% in test [6]. In test [7], the inhibition at 3.3 µM was at least 50%. The inhibition at 10 µM was at least 50% in test [1]; at least 50% in test [2]; at least 50% in test [3]; at least 50% in test [4]; under 30% in test [5]; at least 50% in test [6]. Moreover, the inhibition at 10 µM in test [7] is at least 50%.

Turning to `CC1=C(CC(=O)O)c2cc(F)ccc2/C1=C\c1ccc(Oc2ccc(Cl)c(F)c2)cc1` [C56, (Z)-2-(1-(4-(4-Chloro-3-fluorophenoxy)benzylidene)-5-fluoro-2-methyl-1H-inden-3-yl)acetic acid], the inhibition at 3.3 µM is under 30% in test [1]; at least 50% in test [2]; at least 50% in test [3]; at least 50% in test [4]; under 30% in test [5]; under 30% in test [6]. Further, the inhibition at 3.3 µM in test [7] was at least 50%. For the same compound, the inhibition at 10 µM in test [1] was under 30%; in test [2], at least 50%; in test [3] it was at least 50%; in test [4], at least 50%; in test [5], under 30%; in test [6], at least 50%. The inhibition at 10 µM in test [7] is at least 50%.

With `CC1=C(CC(=O)O)c2cc(F)ccc2/C1=C\c1ccc(Oc2ccc(I)cc2)cc1` [C57, (Z)-2-(5-Fluoro-1-(4-(4-iodophenoxy)benzylidene)-2-methyl-1H-inden-3-yl)acetic acid], the inhibition at 3.3 µM in test [1] was 30 to 50%; in test [2], under 30%; in test [3] it was under 30%; in test [4], 30 to 50%; in test [5], 30 to 50%; in test [6], under 30%. The inhibition at 3.3 µM in test [7] was at least 50%. Further, the inhibition at 10 µM in test [1], in test [2], in test [3], in test [4], in test [5] and in test [6] was at least 50% each time. For the same compound, the inhibition at 10 µM in test [7] was at least 50%.
